In patent US6355799B1, “Substituted benzene compounds, process for their preparation, and herbicidal and defoliant compositions containing them” (ISK Americas Incorporated, priority 1997, dated 2002):

What was measured:
Format in all cases: in vivo
[1] = system: redroot pigweed (Amaranthus retroflexus, AMARE); test: Pre-emerge test, greenhouse herbicide activity screening; conditions: phytotoxicity rating 0-100, 14 days after application
Outline: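 Plants grown in 10 cm pots of sandy loam mix received acetone-dissolved compounds through a moving flat-fan nozzle. Doses ranged from 15 to 1000 g ai/ha. Pre-emerge pots were seeded one day earlier, post-emerge pots 8–21 days earlier. Fourteen days on, each pot was graded 0–100 for damage.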

[2] = system: barnyardgrass (Echinochloa crus-galli, ECHCG); test: as above; conditions: phytotoxicity rating 0-100, 14 days after application
Excerpt: (§1) A standard greenhouse herbicide activity screening system was used to evaluate the herbicidal efficacy and crop safety of these test compounds. Seven broadleaf weed species including redroot pigweed (Amaranthus retroflexus, AMARE, velvetleaf (Abutilon theophrasti, ABUTH), sicklepod (Cassia obtusifolia, CASOB), ivyleaf morningglory (Ipomoea hederacea, IPOHE), lambsquarters (Chenopodium album, CHEAL), common ragweed (Ambrosia artemisizfolia L., AMBEL), and cocklebur (Xanthium strumarium, XANST) were used as test species. Four grass weed species including green foxtail (Setaria viridis, SETVI), barnyardgrass (Echinochloa crus-galli, ECHCG), johnsongrass (Sorghum halepense, SORHA), and large crabgrass (Digitaria sanguinalis, DIGSA) were also used. In addition, three crop species, field corn (Zea mays L., var. Dekalb 535, CORN), soybean (Glycine max L., var. Pella 86, SOY), and is upland rice (Oryza sp., var. Tebonnet, RICE) were included.
(§2) All plants were grown in 10 cm square plastic pots which were filled with a sandy loam soil mix. For pre-emerge tests, seeds were planted one day prior to application of the test compounds. For post-emerge tests, seeds were planted 8-21 days prior to the test to allow emergence and good foliage development prior to application of the test substances. At the time of the post-emerge application, plants of all species were usually at the 2-3 leaf stage of development.
(§3) All test compounds Were dissolved in acetone and applied to the test units in a volume of 187 l /ha. Test materials were applied at rates ranging from 15 g ai/ha to 1000 g ai/ha using a track sprayer equipped with a TJ8001E even flow flat fan spray nozzle. Plants were arranged on a shelf so that the top of the canopy (post-emerge) or top of the soil surface (pre-emerge) was 40-45 cm below the nozzle. Pressurized air was used to force the test solution through the nozzle as it was mechanically advanced (via electrically driven chain drive) over the top of all test plants/pots. This application simulates a typical commercial field herbicide application.
(§4) In the post-emerge test, a commercial non-ionic surfactant was also included (0.25% v/v) to enhance wetting of the leaf surfaces of target plants. Immediately after application, test units of the pre-emerge applications were watered at the soil surface to incorporate the test materials. Subsequently, these test units were bottom-watered. Post-emerge test units were always bottom-watered.
(§5) At 14 days after application of the test materials, phytotoxicity ratings were recorded. A rating scale of 0-100 was used as previously described in Research Methods in Weed Science, 2nd edition, B. Truelove, Ed., Southern Weed Science Society, Auburn University, Auburn, Ala. 1977. Briefly, “0” corresponds to no damage and “100” corresponds to complete death of all plants in the test unit. This scale was used both to determine efficacy against weed species and damage to crop species. Herbicide activity data for various compounds of this invention, which are shown by compound No. in Tables 1-8, are shown in Tables 11 and 12.

[3] = system: green foxtail (Setaria viridis, SETVI); test: as above; conditions: phytotoxicity rating 0-100, 14 days after application
Excerpt: as §1, §2, §3, §4, §5

[4] = system: ivyleaf morningglory (Ipomoea hederacea, IPOHE); test: as above; conditions: phytotoxicity rating 0-100, 14 days after application
Excerpt: as §1, §2, §3, §4, §5

[5] = system: lambsquarters (Chenopodium album, CHEAL); test: as above; conditions: phytotoxicity rating 0-100, 14 days after application
Excerpt: as §1, §2, §3, §4, §5

[6] = system: large crabgrass (Digitaria sanguinalis, DIGSA); test: as above; conditions: phytotoxicity rating 0-100, 14 days after application
Excerpt: as §1, §2, §3, §4, §5

[7] = system: sicklepod (Cassia obtusifolia, CASOB); test: as above; conditions: phytotoxicity rating 0-100, 14 days after application
Excerpt: as §1, §2, §3, §4, §5

[8] = system: velvetleaf (Abutilon theophrasti, ABUTH); test: as above; conditions: phytotoxicity rating 0-100, 14 days after application
Excerpt: as §1, §2, §3, §4, §5

[9] = system: field corn (Zea mays L., var. Dekalb 535, CORN); test: Pre-emerge test, crop safety; conditions: crop damage rating 0-100, 14 days after application
Outline: (§6)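 Applied at 15–1000 g ai/ha from acetone in 187 l/ha spray volume. Post-emergence applications included 0.25% v/v non-ionic surfactant and reached plants sown 8–21 days before. Pre-emergence applications were incorporated by surface watering. Efficacy or crop damage was rated on a 0–100 scale after 14 days.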

[10] = system: upland rice (Oryza sp., var. Tebonnet, RICE); test: Pre-emerge test, crop safety; conditions: crop damage rating 0-100, 14 days after application
Outline: as §6

[11] = system: barnyardgrass (Echinochloa crus-galli, ECHCG); test: Post-emerge test, greenhouse herbicide activity screening; conditions: post-emerge, 14 days after application, rating scale 0-100
Excerpt: as §1, §2, §3, §4, §5

[12] = system: green foxtail (Setaria viridis, SETVI); test: as above; conditions: post-emerge, 14 days after application, rating scale 0-100
Excerpt: as §1, §2, §3, §4, §5

[13] = system: ivyleaf morningglory (Ipomoea hederacea, IPOHE); test: as above; conditions: post-emerge, 14 days after application, rating scale 0-100
Excerpt: as §1, §2, §3, §4, §5

[14] = system: lambsquarters (Chenopodium album, CHEAL); test: as above; conditions: post-emerge, 14 days after application, rating scale 0-100
Excerpt: as §1, §2, §3, §4, §5

[15] = system: large crabgrass (Digitaria sanguinalis, DIGSA); test: as above; conditions: post-emerge, 14 days after application, rating scale 0-100
Excerpt: as §1, §2, §3, §4, §5

[16] = system: redroot pigweed (Amaranthus retroflexus, AMARE); test: as above; conditions: post-emerge, 14 days after application
Excerpt: as §1, §2, §3, §4, §5

[17] = system: sicklepod (Cassia obtusifolia, CASOB); test: as above; conditions: post-emerge, 14 days after application, rating scale 0-100
Excerpt: as §1, §2, §3, §4, §5

[18] = system: velvetleaf (Abutilon theophrasti, ABUTH); test: as above; conditions: post-emerge, 14 days after application, rating scale 0-100
Excerpt: as §1, §2, §3, §4, §5

[19] = system: field corn (Zea mays L., var. Dekalb 535, CORN); test: Post-emerge test, crop safety; conditions: post-emerge, 14 days after application, rating scale 0-100
Outline: (§7)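 Each test used a mechanized track sprayer delivering 187 l/ha of acetone solution at 15–1000 g ai/ha. Post-emerge foliage at 2–3 leaves was treated with added 0.25% v/v non-ionic surfactant and bottom-watered only. Injury was assessed on day 14, where 100 means total kill.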

[20] = system: upland rice (Oryza sp., var. Tebonnet, RICE); test: Post-emerge test, crop safety; conditions: post-emerge, 14 days after application, rating scale 0-100
Outline: as §7

[21] = 63 g ai/ha, rating scale 0-100 (0 no damage, 100 complete death)
[22] = 250 g ai/ha, rating scale 0-100

Row | SMILES | Pre-emerge Herbicidal Activity AMARE ([1]; 63 g ai/ha) | Pre-emerge Herbicidal Activity AMARE ([1]; 250 g ai/ha) | Pre-emerge Herbicidal Activity ECHCG ([2]; 63 g ai/ha) | Pre-emerge Herbicidal Activity ECHCG ([2]; 250 g ai/ha) | Pre-emerge Herbicidal Activity SETVI ([3]; 63 g ai/ha) | Pre-emerge Herbicidal Activity SETVI ([3]; 250 g ai/ha) | Pre-emerge Herbicidal Activity IPOHE ([4]; 63 g ai/ha) | Pre-emerge Herbicidal Activity IPOHE ([4]; 250 g ai/ha) | Pre-emerge Herbicidal Activity CHEAL ([5]; 63 g ai/ha) | Pre-emerge Herbicidal Activity CHEAL ([5]; 250 g ai/ha) | Pre-emerge Herbicidal Activity DIGSA ([6]; 63 g ai/ha) | Pre-emerge Herbicidal Activity DIGSA ([6]; 250 g ai/ha) | Pre-emerge Herbicidal Activity CASOB ([7]; 63 g ai/ha) | Pre-emerge Herbicidal Activity CASOB ([7]; 250 g ai/ha) | Pre-emerge Herbicidal Activity ABUTH ([8]; 63 g ai/ha) | Pre-emerge Herbicidal Activity ABUTH ([8]; 250 g ai/ha) | Pre-emerge Herbicidal Activity CORN ([9]; 63 g ai/ha) | Pre-emerge Herbicidal Activity CORN ([9]; 250 g ai/ha) | Pre-emerge Herbicidal Activity RICE ([10]; 63 g ai/ha) | Pre-emerge Herbicidal Activity RICE ([10]; 250 g ai/ha) | also measured
1 | COc1c(Cl)cc(F)c(-n2c(=O)cc(C(F)(F)F)n(C)c2=O)c1NC(=O)OCc1ccc(C(C)C)cc1 [4-42] | 30 | 90 | 0 | 40 | 30 | 100 | 0 | 40 | 40 | 100 | 10 | 60 | 0 | 100 | 60 | 100 | 0 | 0 | 0 | 0 | phytotoxicity rating ECHCG ([11]; 63 g ai/ha): 0; phytotoxicity rating ECHCG ([11]; 250 g ai/ha): 10; phytotoxicity rating SETVI ([12]; 63 g ai/ha): 0; phytotoxicity rating SETVI ([12]; 250 g ai/ha): 0; phytotoxicity rating IPOHE ([13]; 63 g ai/ha): 40; phytotoxicity rating IPOHE ([13]; 250 g ai/ha): 30; phytotoxicity rating CHEAL ([14]; 63 g ai/ha): 80; phytotoxicity rating CHEAL ([14]; 250 g ai/ha): 90; phytotoxicity rating DIGSA ([15]; 63 g ai/ha): 0; phytotoxicity rating DIGSA ([15]; 250 g ai/ha): 0; phytotoxicity rating AMARE [16, 21]: 75; phytotoxicity rating AMARE [16, 22]: 100; phytotoxicity rating CASOB ([17]; 63 g ai/ha): 0; phytotoxicity rating CASOB ([17]; 250 g ai/ha): 0; phytotoxicity rating ABUTH ([18]; 63 g ai/ha): 100; phytotoxicity rating ABUTH ([18]; 250 g ai/ha): 100; phytotoxicity rating CORN (crop damage) ([19]; 63 g ai/ha): 0; phytotoxicity rating CORN (crop damage) ([19]; 250 g ai/ha): 0; phytotoxicity rating RICE (crop damage) ([20]; 63 g ai/ha): 0; phytotoxicity rating RICE (crop damage) ([20]; 250 g ai/ha): 0
2 | COc1c(Cl)cc(F)c(-n2c(=O)cc(C(F)(F)F)n(C)c2=O)c1NC(=O)OCc1ccc(C(F)(F)F)cc1 [4-43] | 10 | 60 | 0 | 10 | 0 | 70 | 0 | 10 | 30 | 80 | 0 | 60 | 0 | 40 | 20 | 50 | 0 | 0 | 0 | 10 | phytotoxicity rating ECHCG ([11]; 63 g ai/ha): 0; phytotoxicity rating ECHCG ([11]; 250 g ai/ha): 10; phytotoxicity rating SETVI ([12]; 63 g ai/ha): 0; phytotoxicity rating SETVI ([12]; 250 g ai/ha): 40; phytotoxicity rating IPOHE ([13]; 63 g ai/ha): 40; phytotoxicity rating IPOHE ([13]; 250 g ai/ha): 40; phytotoxicity rating CHEAL ([14]; 63 g ai/ha): 80; phytotoxicity rating CHEAL ([14]; 250 g ai/ha): 90; phytotoxicity rating DIGSA ([15]; 63 g ai/ha): 0; phytotoxicity rating DIGSA ([15]; 250 g ai/ha): 0; phytotoxicity rating AMARE [16, 21]: 70; phytotoxicity rating AMARE [16, 22]: 100; phytotoxicity rating CASOB ([17]; 63 g ai/ha): 50; phytotoxicity rating CASOB ([17]; 250 g ai/ha): 60; phytotoxicity rating ABUTH ([18]; 63 g ai/ha): 60; phytotoxicity rating ABUTH ([18]; 250 g ai/ha): 100; phytotoxicity rating CORN (crop damage) ([19]; 63 g ai/ha): 0; phytotoxicity rating CORN (crop damage) ([19]; 250 g ai/ha): 10; phytotoxicity rating RICE (crop damage) ([20]; 63 g ai/ha): 0; phytotoxicity rating RICE (crop damage) ([20]; 250 g ai/ha): 0
